For the experiment, the target named is T1, wildtype HIV-1 protease (Human immunodeficiency virus type 1 group M subtype B, UniProt P04585).
T1 construct: the wildtype HIV-1 protease (which was expressed in Escherichia coli); made in house; host or cells: Escherichia coli
Briefly: Assay for inhibition of microbial expressed HIV protease (Pepcleav). The experiment is classed as biochemical. The settings on record: wild type HIV-1 protease expressed in E. coli, peptide substrate, pH 5.5; mean of at least two independent experiments; read-out: Pepcleav. The protocol: Assay for Inhibition of Microbial Expressed HIV Protease (“Pepcleav”)
Studies of the inhibition of the wildtype HIV-1 protease (which was expressed in Escherichia coli) were carried out with a peptide substrate [Val-Ser-Gln-Asn-(βnaphthyl)Ala-Pro-Ile-Val (SEQ ID NO:1)]. The inhibitor is first preincubated with the HIV-1 protease (wild type) enzyme in assay buffer (50 mM sodium acetate, pH 5.5, 100 mM NaCl, and 0.1% BSA) for 30 minutes at room temperature. Substrate is added to 400 micromolar in a total volume of 20 microliters containing 20 picomolar HIV-1 protease (final) and the reaction is incubated for 1 hour at 30° C. The reaction is quenched with the addition of formic acid and indinavir to 0.012% and 150 nM final concentrations, respectively. The product formation is determined after separation of product and substrate on a Zorbax Eclipse XDB-C 18 column connected to an API 4000 mass spectrometer (Applied Biosystems) with multiple reaction monitoring (transitions were 644.5/428.9 and 615.4/422.2 (M1/M3) for product and indinavir respectively). The extent of inhibition of the reaction is determined from the peak area of the products.
On to `COC(=O)N[C@H](C(=O)Nc1ccccc1CC[C@@H]1CN[C@H](Cn2cc(-c3ccccc3)nn2)CO1)C(c1ccccc1)c1ccccc1` [Example 64, Nα-(methoxycarbonyl)-β-phenyl-N-[2-(2-{(2R,5R)-5-[(4-phenyl-1H-1,2,3-triazol-1-yl)methyl]morpholin-2-yl}ethyl)phenyl]-L-phenylalaninamide], for which the IC50 stood at 56 nM.

For the compound `N[C@H](C(=O)Nc1cncc(F)c1CC[C@@H]1CN[C@H](COC(=O)N[C@@H]2COC[C@@H]2F)CO1)C(c1ccc(F)cc1)c1ccc(F)cc1` [Example 211], the IC50 turned out to be 12 nM.

In the case of `N[C@H](C(=O)Nc1cncc(F)c1CC[C@@H]1CN[C@H](COC(=O)NCC2CCS(=O)(=O)C2)CO1)C(c1ccc(F)cc1)c1ccc(F)cc1` (stereo partly drawn) [Example 209, N-[4-(2-{(2R,5S)-5-[({[(1,1-dioxidotetrahydrothiophen-3-yl)methyl]carbamoyl}oxy)methyl]morpholin-2-yl}ethyl)-5-fluoropyridin-3-yl]-4-fluoro-β-(4-fluorophenyl)-L-phenylalaninamide], the IC50 was 16 nM.

In the case of `COC(=O)N[C@H](C(=O)Nc1cnccc1CC[C@@H]1CN[C@H](COC(=O)NCC(F)(F)F)CO1)C(c1ccccc1)c1ccccc1` [Example 34, Nα-(methoxycarbonyl)-β-phenyl-N-(4-{2-[(2R,5S)-5-({[(2,2,2-trifluoroethyl)carbamoyl]oxy}methyl)morpholin-2-yl]ethyl}pyridin-3-yl)-L-phenylalaninamide], the IC50 was found to be 14 nM.

As for `CCC[C@@H](c1ccccc1)[C@H](N)C(=O)Nc1cccc(F)c1CC[C@@H]1CN[C@H](COC(=O)NCc2ccc(F)cc2)CO1` [Example 199, (βS)-N-(3-fluoro-2-{2-[(2R,5S)-5-({[(4-fluorobenzyl)carbamoyl]oxy}methyl)morpholin-2-yl]ethyl}phenyl)-β-propyl-L-phenylalaninamide], the IC50 came to 41 nM.

In the case of `N[C@@H](Cc1ccccc1C1CC1)C(=O)Nc1cncc(F)c1CC[C@@H]1CN[C@H](COC(=O)NCC(F)(F)F)CO1` [Example 189, 2-cyclopropyl-N-(5-fluoro-4-{2-[(2R,5S)-5-({[(2,2,2-trifluoroethyl)carbamoyl]oxy}methyl)morpholin-2-yl]ethyl}pyridin-3-yl)-L-phenylalaninamide], the IC50 is 1730 nM.

On to `N[C@H](C(=O)Nc1cncc(F)c1OC[C@@H]1CN[C@H](COC(=O)NCC(F)(F)F)CO1)C(c1ccc(F)cc1)c1ccc(F)cc1` [Example 203, 4-fluoro-β-(4-fluorophenyl)-N-(5-fluoro-4-{[(2S,5S)-5-({[(2,2,2-trifluoroethyl)carbamoyl]oxy}methyl)morpholin-2-yl]methoxy}pyridin-3-yl)-L-phenylalaninamide], for which the IC50 amounted to 28 nM.

On to `O=C(C[C@H](c1ccccc1)c1ccncc1)Nc1cccc(F)c1CC[C@@H]1CN[C@H](COC(=O)NCC(F)(F)F)CO1` [Example 162, {(3S,6R)-6-[2-(2-fluoro-6-{[(3R)-3-phenyl-3-pyridin-4-ylpropanoyl]amino}phenyl)ethyl]morpholin-3-yl}methyl (2,2,2-trifluoroethyl)carbamate], for which the IC50 is 510 nM.

As for `COC(=O)N[C@H](C(=O)Nc1ccccc1CC[C@@H]1CN[C@H](COC(=O)NCc2cccnc2)CO1)C(c1ccccc1)c1ccccc1` [Example 20, methyl N-[(1S)-1-benzhydryl-2-oxo-2-[[2-[2-[(2R,5S)-5-(3-pyridylmethylcarbamoyloxymethyl)morpholin-2-yl]ethyl]phenyl]amino]ethyl]carbamate], the IC50 amounted to 78 nM.

As to `NC(=O)OC[C@@H]1CO[C@H](CCc2c(F)cncc2NC(=O)[C@@H](N)C(c2ccc(F)cc2)c2ccc(F)cc2)CN1` [Example 119, N-[4-(2-{(2R,5S)-5-[(Carbamoyloxy)methyl]morpholin-2-yl}ethyl)-5-fluoropyridin-3-yl]-4-fluoro-β-(4-fluorophenyl)-L-phenylalaninamide], the IC50 is 6.9 nM.

Turning to `N[C@@H](C(=O)Nc1cncc(F)c1CC[C@@H]1CN[C@H](CO)CO1)[C@@H](c1ccccc1)c1ccnc2ccccc12` [Example 225, (βS)-N-(5-fluoro-4-{2-[(2R,5R)-5-(hydroxymethyl)morpholin-2-yl]ethyl}pyridin-3-yl)-β-quinolin-4-yl-D-phenylalaninamide], the IC50 came out at 2700 nM.

Take `COC(=O)N[C@H](C(=O)Nc1c(CC[C@@H]2CN[C@H](COC(=O)NCC(F)(F)F)CO2)cc[nH]c1=O)C(c1ccccc1)c1ccccc1` [Example 39, Nα-(methoxycarbonyl)-N-(2-oxo-4-{2-[(2R,5S)-5-({[(2,2,2-trifluoroethyl)carbamoyl]oxy}methyl)morpholin-2-yl]ethyl}-1,2-dihydropyridin-3-yl)-β-phenyl-L-phenylalaninamide]: the IC50 came out at 2.3 nM.

Turning to `COC(=O)N[C@H](C(=O)Nc1ccccc1CC[C@@H]1CN[C@H](CNS(=O)(=O)c2ccc(N)cc2)CO1)C(c1ccccc1)c1ccccc1` [Example 49, N-(2-{2-[(2R,5R)-5-({[(4-aminophenyl)sulfonyl]amino}methyl)morpholin-2-yl]ethyl}phenyl)-Nα-(methoxy-carbonyl)-β-phenyl-L-phenylalaninamide], the IC50 was found to be 94 nM.

`O=C(C[C@H](CC1CC1)c1ccccc1)Nc1cccc(F)c1CC[C@@H]1CN[C@H](COC(=O)NCC(F)(F)F)CO1` [Example 163, {(3S,6R)-6-[2-(2-{[(3S)-4-cyclopropyl-3-phenyl-butanoyl]amino}-6-fluoro-phenyl)ethyl]morpholin-3-yl}methyl (2,2,2-trifluoroethyl)carbamate]: the IC50 stood at 1100 nM.

In the case of `CCC[C@H](c1ccccc1)[C@H](N)C(=O)Nc1cccc(F)c1CC[C@@H]1CN[C@H](COC(=O)NCC(F)(F)F)CO1` [Example 228, (βR)-N-(3-fluoro-2-{2-[(2R,5S)-5-({[(2,2,2-trifluoroethyl)carbamoyl]oxy}methyl)morpholin-2-yl]ethyl}phenyl)-β-propyl-L-phenylalaninamide], the IC50 was found to be 190 nM.

`COC(=O)N[C@H](C(=O)Nc1ccccc1CC[C@@H]1CN[C@H](COC(=O)NCc2ccc3nonc3c2)CO1)C(c1ccccc1)c1ccccc1` [Example 21, methyl N-[(1S)-1-benzhydryl-2-[[2-[2-[(2R,5S)-5-(2,1,3-benzoxadiazol-5-ylmethylcarbamoyloxymethyl)morpholin-2-yl]ethyl]phenyl]amino]-2-oxo-ethyl]carbamate]: the IC50 is 52 nM.

`COC(=O)N[C@H](C(=O)Nc1cccc(F)c1CC[C@@H]1CN[C@H](COC(=O)NCC(F)(F)F)CO1)[C@@H](c1ccc(Cl)c(F)c1)C1CCOCC1` [Example 129, (βR)-4-Chloro-3-fluoro-N-(3-fluoro-2-{2-[(2R,5S)-5-({[(2,2,2-trifluoroethyl)carbamoyl]oxy}methyl)morpholin-2-yl]ethyl}phenyl)-Nα-(methoxycarbonyl)-β-(tetrahydro-2H-pyran-4-yl)-L-phenylalaninamide]: the IC50 worked out at 8.6 nM.

Regarding `COC(=O)N[C@H](C(=O)Nc1ccccc1CC[C@@H]1CN[C@H](CNC(=O)Nc2ccccc2)CO1)C(c1ccccc1)c1ccccc1` [Example 40, N-α-(methoxycarbonyl)-β-phenyl-N-(2-{2-[(2R,5R)-5-{[(phenylcarbamoyl)amino]methyl}morpholin-2-yl]ethyl}phenyl)-L-phenylalaninamide], the IC50 worked out at 52 nM.

As to `COC(=O)N[C@H](C(=O)Nc1ccccc1CC[C@@H]1CN[C@H](CNS(=O)(=O)c2cccc(C(F)(F)F)n2)CO1)C(c1ccccc1)c1ccccc1` [Example 46, methyl N-[(1S)-1-benzhydryl-2-oxo-2-[[2-[2-[(2R,5R)-5-[[[6-(trifluoromethyl)-2-pyridyl]sulfonylamino]methyl]morpholin-2-yl]ethyl]phenyl]amino]ethyl]carbamate], the IC50 is 50 nM.

As for `COC(=O)N[C@H](C(=O)Nc1ccccc1CC[C@@H]1CN[C@H](CCc2ccccc2N)CO1)C(c1ccccc1)c1ccccc1` [Example 72, methyl N-[(1S)-1-[[2-[2-[(2R,5R)-5-[2-(2-aminophenyl)ethyl]morpholin-2-yl]ethyl]phenyl]carbamoyl]-2,2-diphenyl-ethyl]carbamate], the IC50 is 14 nM.

Turning to `COC(=O)N[C@H](C(=O)Nc1ccccc1CC[C@@H]1CN[C@H](COC(=O)NCc2cccc3ccncc23)CO1)C(c1ccccc1)c1ccccc1` [Example 18, methyl N-[(1S)-1-benzhydryl-2-[[2-[2-[(2R,5S)-5-(8-isoquinolylmethylcarbamoyloxymethyl)morpholin-2-yl]ethyl]phenyl]amino]-2-oxo-ethyl]carbamate], the IC50 stood at 28 nM.

Take `N[C@H](C(=O)Nc1ccc(F)cc1CC[C@@H]1CN[C@H](COC(=O)NCC(F)(F)F)CO1)C(c1ccccc1)c1ccccc1` [Example 196, N-(4-fluoro-2-{2-[(2R,5S)-5-({[(2,2,2-trifluoroethyl)carbamoyl]oxy}methyl)morpholin-2-yl]ethyl}phenyl)-β-phenyl-L-phenylalaninamide]: the IC50 stood at 79 nM.

Take `COC(=O)N[C@H](C(=O)Nc1ccccc1CC[C@@H]1CN[C@H](CNC(=O)Nc2ccccn2)CO1)C(c1ccccc1)c1ccccc1` [Example 42, methyl N-[(1S)-1-benzhydryl-2-oxo-2-[[2-[2-[(2R,5R)-5-[(2-pyridylcarbamoylamino)methyl]morpholin-2-yl]ethyl]phenyl]amino]ethyl]carbamate]: the IC50 worked out at 17 nM.

For the origin of these results see patent US9315475B2 (MERCK SHARP & DOHME CORP., priority 2011, dated 2016).
